This note sets out measurements from patent US8124624B2, “Substituted sulfonamide compounds” (Gruenenthal GmbH, priority 2008, dated 2012).

The target in one assay is T1, human B1R (Homo sapiens, UniProt P46663).
T1 construct: expressed in transfected cells; host or cells: CHO K1 cells (hB1R cells)
T1 sequence (P46663 1-353): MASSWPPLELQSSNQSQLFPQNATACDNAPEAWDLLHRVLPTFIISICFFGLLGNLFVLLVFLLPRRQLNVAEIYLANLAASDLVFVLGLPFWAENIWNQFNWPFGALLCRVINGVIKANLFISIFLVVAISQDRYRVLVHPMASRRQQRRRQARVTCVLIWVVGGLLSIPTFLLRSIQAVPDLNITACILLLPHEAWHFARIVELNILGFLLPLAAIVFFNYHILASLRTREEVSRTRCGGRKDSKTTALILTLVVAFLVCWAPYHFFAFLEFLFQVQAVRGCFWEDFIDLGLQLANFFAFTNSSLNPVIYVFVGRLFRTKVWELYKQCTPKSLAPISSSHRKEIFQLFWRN
As to the kind of experiment: FLIPR Ca2+ influx assay, B1R antagonism, human (hB1R CHO K1 cells). The assay is classed as cell-based. As to conditions: test substance 10 μM, CHO K1 cells stably transfected with human B1R, agonist Lys-Des-Arg9-bradykinin at EC80, % inhibition compared with maximum achievable inhibition; for inhibition at 10 µM: read-out: B1R antagonism, human [10 μM] % inhibition. The procedure: The agonistic or antagonistic action of substances can be quantified on the bradykinin receptor 1 (B1R) of the species human and rat using ectopically expressing cell lines (CHO K1 cells) and with the aid of a Ca^2+-sensitive dye (Fluo-4) using a fluorescent imaging plate reader (FLIPR). The indication in % activation is based on the Ca^2+ signal after addition of Lys-Des-Arg^9-bradykinin (0.5 nM) or Des-Arg^9-bradykinin (100 nM). Antagonists lead to suppression of the Ca^2+ influx after the addition of the agonist. % Inhibition compared with the maximum achievable inhibition is indicated.
The agonistic or antagonistic action of substances can be determined on the bradykinin receptor 1 (B1R) of the species human and rat using the following assay. According to this assay, the Ca^2+ influx through the channel is quantified with the aid of a Ca^2+-sensitive dye (Fluo-4 type, Molecular Probes Europe BV, Leiden, Netherlands) using a Fluorescent Imaging Plate Reader (FLIPR, Molecular Devices, Sunnyvale, USA).
Chinese hamster ovary cells (CHO K1 cells) which have been stably transfected with the human B1R gene (hB1R cells) or with the B1R gene of the rat (rB1R cells) are used. For functional studies, the cells are plated out on black 96-well plates having a clear base (BD Biosciences, Heidelberg, Germany or Greiner, Frickenhausen, Germany) in a density of 20,000-35,000 cells/well. The cells are incubated overnight at 37° C. and with 5% CO2 in culture medium (hB1R cells: Nutrient Mixture Ham's F12, Gibco Invitrogen GmbH, Karlsruhe, Germany or DMEM, Sigma-Aldrich, Taufkirchen, Germany; rB1R cells: D-MEM/F12, Gibco Invitrogen GmbH, Karlsruhe, Germany), with 10 vol. % FBS (fetal bovine serum, Gibco Invitrogen GmbH, Karlsruhe, Germany or PAN Biotech GmbH, Aidenbach, Germany).
On the following day, the cells are loaded for 60 minutes at 37° C. with 2.13 μM Fluo-4 (Molecular Probes Europe BV, Leiden, Netherlands) in HBSS buffer (Hank's buffered saline solution, Gibco Invitrogen GmbH, Karlsruhe, Germany) […] (Sigma-Aldrich, Taufkirchen, Germany) and 10 mM HEPES (Sigma-Aldrich, Taufkirchen, Germany). The plates are then washed twice with HBSS buffer, and HBSS buffer additionally containing 0.1% BSA (bovine serum albumin; Sigma-Aldrich, Taufkirchen, Germany), 5.6 mM glucose and 0.05% gelatin (Merck KGaA, Darmstadt, Germany) is added to the plates. After incubation for a further 20 minutes at room temperature, the plates are inserted into the FLIPR for Ca^2+ measurement.
Alternatively, washing is carried out with buffer A (15 mM HEPES, 80 mM NaCl, 5 mM KCl, 1.2 mM CaCl2, 0.7 mM MgSO4, 2 g/l glucose, 2.5 mM probenecid) followed by loading with buffer A with added 2.5 μM Fluo-4 and 0.025% Pluronic F127 (Sigma-Aldrich, Taufkirchen, Germany). The cells are then washed twice with buffer A and incubated for 30 minutes at room temperature with buffer A additionally containing 0.05% BSA and 0.05% gelatin and are then inserted into the FLIPR for Ca^2+ measurement.
The Ca^2+-dependent fluorescence is measured before and after the addition of substances (λex=488 nm, λem=540 nm). Quantification is carried out by measuring the highest fluorescence intensity (FC, fluorescence counts) over time.
The FLIPR protocol consists of two substance additions. Test substances (10 μM) are first pipetted onto the cells and the Ca^2+ influx is compared with the control (hB1R: Lys-Des-Arg^9-bradykinin >=50 nM; rB1R: Des-Arg^9-bradykinin 10 μM). This gives the activation in %, based on the Ca^2+ signal after addition of Lys-Des-Arg^9-bradykinin (>=50 nM) or Des-Arg^9-bradykinin (10 μM). After 10-20 minutes' incubation, Lys-Des-Arg^9-bradykinin (hB1R) or Des-Arg^9-bradykinin (rB1R) is applied in the concentration of the EC80, and the influx of Ca^2+ is likewise determined. Antagonists lead to suppression of the Ca^2+ influx. The % inhibition compared with the maximum achievable inhibition is calculated. […]

In another assay the target is T2, B1R of the rat (Rattus norvegicus, UniProt P97583).
T2 construct: expressed in transfected cells; host or cells: CHO K1 cells (rB1R cells)
T2 sequence (P97583 1-337): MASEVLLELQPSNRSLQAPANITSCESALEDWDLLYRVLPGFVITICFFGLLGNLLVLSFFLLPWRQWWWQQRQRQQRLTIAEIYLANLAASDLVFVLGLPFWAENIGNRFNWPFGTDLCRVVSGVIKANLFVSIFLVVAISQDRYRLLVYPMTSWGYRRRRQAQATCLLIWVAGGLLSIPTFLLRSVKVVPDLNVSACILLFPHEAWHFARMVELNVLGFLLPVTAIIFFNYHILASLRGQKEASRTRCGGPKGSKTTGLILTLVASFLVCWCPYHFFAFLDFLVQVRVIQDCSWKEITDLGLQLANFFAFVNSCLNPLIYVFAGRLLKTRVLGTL
Nature of the assay: FLIPR Ca2+ influx assay, B1R antagonism, rat (rB1R CHO K1 cells). It counts as cell-based. Particulars: test substance 10 μM, CHO K1 cells stably transfected with rat B1R, agonist Des-Arg9-bradykinin at EC80, % inhibition compared with maximum achievable inhibition; for inhibition at 10 µM: read-out: B1R antagonism, rat [10 μM] % inhibition. The essentials: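 CHO K1 cells stably expressing human or rat B1R were loaded with Fluo-4, and Ca^2+ fluorescence was read on a FLIPR. After 10–20 min with test substance, agonist was added at EC80: Lys-Des-Arg^9-bradykinin for hB1R, Des-Arg^9-bradykinin for rB1R. % inhibition is relative to maximal inhibition; IC50 from multiple concentrations, n=2–3, N≥2.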

A word on the inhibition: it is the drop in the measured response relative to a control, in per cent.

With `CN(C)CCCC1(c2cccnc2)CCN(C(=O)CC2CCCCN2S(=O)(=O)c2cccc(C(F)(F)F)c2)CC1` (stereo not drawn) [Example 24, 1-(4-(3-(Dimethylamino)propyl)-4-(pyridin-3-yl)piperidin-1-yl)-2-(1-(3-(trifluoromethyl)phenylsulfonyl)piperidin-2-yl)ethanone], the inhibition at 10 µM was 38% on human B1R and 60% on B1R of the rat.

Consider `COc1cc(C)c(S(=O)(=O)N2CCCC[C@H]2COCC(=O)N2CCC(CN3CCCC3)(c3cccnc3)CC2)c(C)c1` [Example 25, (S)-2-((1-(4-Methoxy-2,6-dimethylphenylsulfonyl)piperidin-2-yl)methoxy)-1-(4-(pyridin-3-yl)-4-(pyrrolidin-1-ylmethyl)piperidin-1-yl)ethanone], for which the inhibition at 10 µM is 97% at human B1R and 63% at B1R of the rat.

For the compound `COc1cc(C)c(S(=O)(=O)N2CCCCC2COCC(=O)N2CCC(CCCN3CCCC3)(c3cccnc3)CC2)c(C)c1` (stereo not drawn) [Example 26, 2-[[1-[(4-Methoxy-2,6-dimethyl-phenyl)sulfonyl]-piperidin-2-yl]-methoxy]-1-[4-pyridin-3-yl-4-(3-pyrrolidin-1-yl-propyl)-piperidin-1-yl]-ethanone], the “B1R antagonism, human [10 μM] % inhibition” value on human B1R is given as 100%. For the same compound, the “B1R antagonism, rat [10 μM] % inhibition” value at B1R of the rat turned out to be 103%.

Turning to `COc1cc(C)c(S(=O)(=O)N2CCCCC2COCC(=O)N2CCC(CCCN3CCCC3)(c3cccnc3)CC2)c(C)c1` (stereo not drawn) [Example 27, 2-[[1-[(4-Methoxy-2,6-dimethyl-phenyl)sulfonyl]-piperidin-2-yl]-methoxy]-1-[4-pyridin-3-yl-4-(3-pyrrolidin-1-yl-propyl)-piperidin-1-yl]-ethanone], the “B1R antagonism, human [10 μM] % inhibition” value at human B1R stood at 100%. The “B1R antagonism, rat [10 μM] % inhibition” value on B1R of the rat is given as 102%.

In the case of `COc1cc(C)c(S(=O)(=O)N(C)CCOCC(=O)N2CCC(CCCN3CCCC3)(c3cccnc3)CC2)c(C)c1` [Example 29, 4-Methoxy-N,2,6-trimethyl-N-[2-[2-oxo-2-[4-pyridin-3-yl-4-(3-pyrrolidin-1-yl-propyl)-piperidin-1-yl]-ethoxy]-ethyl]-benzenesulfonic acid amide], the “B1R antagonism, human [10 μM] % inhibition” value at human B1R came out at 100%. Further, on B1R of the rat, the “B1R antagonism, rat [10 μM] % inhibition” value was determined as 101%.

`COc1cc(C)c(S(=O)(=O)N(C)CCOCC(=O)N2CCC(CCCN3CCCC3)(c3cccnc3)CC2)c(C)c1C` [Example 31, 4-Methoxy-N,2,3,6-tetramethyl-N-[2-[2-oxo-2-[4-pyridin-3-yl-4-(3-pyrrolidin-1-yl-propyl)-piperidin-1-yl]-ethoxy]-ethyl]-benzenesulfonic acid amide]: the inhibition at 10 µM at human B1R turned out to be 100%; at B1R of the rat, 101%.

As for `COc1cc(C)c(S(=O)(=O)N(CCOCC(=O)N2CCC(CCCN3CCCC3)(c3cccnc3)CC2)Cc2ccccc2)c(C)c1` [Example 37, N-Benzyl-4-Methoxy-2,6-dimethyl-N-[2-[2-oxo-2-[4-pyridin-3-yl-4-(3-pyrrolidin-1-yl-propyl)-piperidin-1-yl]-ethoxy]-ethyl]-benzenesulfonic acid amide], the values for the inhibition at 10 µM on human B1R and at B1R of the rat were 100% and 103%, respectively.

As to `COc1cc(C)c(S(=O)(=O)N(CCOCC(=O)N2CCC(CCCN3CCCC3)(c3cccnc3)CC2)Cc2ccccc2)c(C)c1` [Example 38, N-Benzyl-4-Methoxy-2,6-dimethyl-N-[2-[2-oxo-2-[4-pyridin-3-yl-4-(3-pyrrolidin-1-yl-propyl)-piperidin-1-yl]-ethoxy]-ethyl]-benzenesulfonic acid amide], the “B1R antagonism, human [10 μM] % inhibition” value at human B1R was found to be 100%. Also, the “B1R antagonism, rat [10 μM] % inhibition” value on B1R of the rat is recorded as 101%.

For `O=C(COCC1CCCCN1S(=O)(=O)c1ccccc1C(F)(F)F)N1CCC(CCCN2CCCC2)(c2cccnc2)CC1` (stereo not drawn) [Example 41, 1-[4-Pyridin-3-yl-4-(3-pyrrolidin-1-yl-propyl)-piperidin-1-yl]-2-[[1-[[2-(trifluoromethyl)-phenyl]sulfonyl]-piperidin-2-yl]-methoxy]-ethanone], the inhibition at 10 µM stood at 100% at human B1R and 104% on B1R of the rat.
